Test results: patent publication US20070254023A1, “Perorally Administrable Antimicrobial Composition” (priority 2004, published 2007)

Tested on: bifidobacteria
Assay: Effect of peroral administration on bifidobacteria of the gut in CBA mice
Type: in vivo
Conditions: ten-day peroral course, tetracycline 750 mg/kg
Text: Comparative experimental trials of the effect of peroral administration of antibiotics and an antibacterial composition comprising an antibiotic and lactulose on gut organisms and liver condition in CBA mice.
Models of experimental pathology caused by peroral administration of ampicillin and tetracycline in large doses were used.

CN(C)[C@@H]1C(O)=C(C(N)=O)C(=O)[C@@]2(O)C(O)=C3C(=O)c4c(O)cccc4[C@@](C)(O)[C@H]3C[C@@H]12 [tetracycline]
contents of bifidobacteria in the large intestine: reduced the contents of bifidobacteria
